The target in experiment [1] is T1, α-thrombin (Homo sapiens, UniProt P00734). The experiment in a line: Thrombin-induced clotting of purified fibrinogen. Type of experiment: biochemical. Conditions: preincubation with α-thrombin up to 60 minutes before fibrinogen. As to the method:
Inhibition is reflected as an increase in the relative clotting time which is the ratio of the […]. The control clotting time in this assay is 16.2±0.78 sec.
The clotting time of fibrinogen following the addition of the thrombin/inhibitor complex was measured optically using the Coag-A-Mate XC automated coagulometer (General Diagnostics, Organon Technica, Oklahoma City, OK). […] Haemostas., 69:130-134 (1993).

Experiment [2] deals with FeCl3 Model of Thrombosis in Rats. The experiment in a line: Rat model of FeCl3-induced platelet-dependent arterial thrombosis. The experiment is classed as in vivo. Conditions: for Incidence of Occlusion: occluded/total animals. The source says:
Kurz, K. D., Main, B. W., and Sandusky, G. E., Thromb. Res., 60:269-280 (1990). In this model a platelet-rich, occlusive thrombus is formed in a segment of the rat carotid artery treated with a fresh solution of FeCl3 absorbed to a piece of filter paper. The FeCl3 is thought to diffuse into the treated segment of artery and causes de-endothelialization resulting in thrombus formation. The effect of a test compound on the incidence of occlusive thrombus formation following the application of the FeCl3 is monitored by ultrasonic flowtometry and is used as the primary end point. The use of flowtometry is a modification of the original procedure in which thermal detection of clot formation was employed. Kurz, K. D., Main, B. W., and Sandusky, G. E., Thromb. Res., 60:269-280 (1990).
Male Harlan Sprague Sawley rats (420-450 g) were acclimated at least 72 hours prior to use and fasted for 12 hours prior to surgery with free access to water. The animals were prepared, anesthetized with Nembutal with catheters for blood pressure monitoring, drug and anesthesia delivery being implanted as described above. The left carotid artery was exposed and isolated by making a midline cervical incision followed by blunt dissection and spreading techniques to separate a 2 cm segment of the vessel from the carotid sheath. A silk suture is inserted under the proximal and distal ends of the isolated vessel to provide clearance for the placement of a ultrasonic flow probe (Transonic) around the proximal end of the vessel. The probe is then secured with a stationary arm.
The test compounds were administered as described above after placement of the flow probe and stabilization of the preparation for a period of 60 minutes prior to the thrombogenic stimulus. At t=0, a 3 mm diameter piece of filter paper (Whatman #3) soaked with 10 μL of a 35% solution of fresh FeCl3 (in water) was applied the segment of isolated carotid artery distal to the flow probe. Blood pressure, blood flow, heart rate, and respiration were monitored for 60 minutes.
The incidence of occlusion (defined as the attainment of zero blood flow) was recorded as the primary end point. Following the 60 minute observation period the flow probe was removed and the area cleared of all excess fluid. The distal and proximal sutures were tied off and arterial clamps placed on the far proximal and distal ends of the segment. The isolated segment was cut out, blotted dry on filter paper and weighed. The segment was re-weighed following removal of the clot and the difference recorded as total % clot (see above). Weights were recorded on only those segments which had detectable thrombus. Following the procedure the animals were euthanized as described above.

Experiment [3] relates to pooled normal human plasma. The experiment can be described thus: Ex vivo coagulation assay (APTT). Conditions: normal citrated human plasma; FIG. 3. On the procedure:
Fresh frozen pooled normal human plasma was obtained from George King Biomedical, Overland Park, KA. Measurements APTT was made using the Coag-A-Mate RA4 automated coagulometer (General Diagnostics, Organon Technica, Oklahoma City, OK) using the Automated APTT reagent (Organon Technica, Durham, NC) as the initiator of clotting according to the manufacturers instructions. The assay was conducted by making a series of dilutions of the test compounds in rapidly thawed plasma followed by adding 200 μL to the wells of the assay carousel.

Experiment [4] addresses T1, α-thrombin. The experiment in a line: Amidolytic thrombin assay (inhibition constant Ki). Type of experiment: biochemical. On the procedure: The ability of the compounds of the present invention to act as inhibitors of thrombin catalytic activity in comparison to Hirulog-1 (compound 25) was assessed by determining their inhibition constant, Ki.
Enzyme activity was determined using the chromogenic substrate Pefachrome t-PA (CH3 SO2 -D-hexahydrotyrosine-glycyl-L-arginine-p-nitroaniline, obtained from Pentapharm Ltd.). The substrate was reconstituted in deionized water prior to use.
Ki values were determined for test compounds using the following methodologies:
The assay was conducted by combining in appropriate wells of a Corning microtiter plate, 50 μL of HBSA, 50 μL of the test compound at a specified concentration diluted in HBSA (or HBSA alone for Vo(uninhibited velocity) measurement), and 50 μL of the chromogenic substrate diluted in HBSA. At time zero, 50 μL of α-thrombin diluted in HBSA, was added to the wells yielding a final concentration of 0.25 nM in a total volume of 200 μL. Velocities of Pefachrome-tPA substrate hydrolysis which occurred over a 40 minute time period was measured by the change in absorbance at 405 nm using a Thermo Max® Kinetic Microplate Reader. […] The linear relationship between kobs and inhibitor concentration is indicative of a competitive, one step mechanism and was used to calculate kon and koff which yielded a value for Ki after taking into consideration the concentration and Km (38.5 μM) of the substrate in the assay.
The initial velocity of Pefachrome t-PA hydrolysis was measured by the change in absorbance at 405 nm using a Thermo Max® Kinetic Microplate Reader over a 2 minute period in which less than 5% of the added substrate was utilized. The relationship between the ratio of the inhibited steady-state velocity (Vs) and the uninhibited velocity (Vo) to the concentration of inhibitor [It ], was analyzed using Equation 1 developed by Morrison , J. F., Biochim. Biophys. Acta, 185:269 (1969) for inhibitors which deplete a significant amount of the total enzyme (Et) over the course of the assay (designated tight binding inhibitors):
Vs/Vo={([Et ]-[It ]-Ki*)+[([It ]+Ki*-[Et ])^2
Ki* was determined by fitting Vs/Vo verses [I] using Equation 1 by non-linear regression analysis.
The best fit of the data for both compounds was to the equation describing competitive inhibition.

Where [5] appears, read: 0.1 mg/kg i.v. bolus + 40 μg/kg/min i.v. infusion.

Here are results for one substance from patent publication US5656600A, “α-ketoamide derivatives as inhibitors of thrombosis” (Corvas International, Inc., priority 1993, dated 1997).

pKi: −log10 of the molar value.

Take “(D--Phe)--Pro--Arg--Pro--(Gly4 --Asn--Gly--Asp--Phe--Glu--Glu--IIe--Pro--Glu--Glu--Tyr--Leu--OH [Compound 25]”: on α-thrombin [1], the “proteolytic inactivation by thrombin upon prolonged incubation” value is reported as “sensitive to proteolytic degradation with re-emergence of thrombin activity”. In addition, the “% Clot” value in experiment [2] (0.1 mg/kg i.v. bolus + 5 μg/kg/min i.v. infusion, mean ± S.E.M., segments with detectable thrombus) turned out to be 70.1 ± 5.5%; in experiment [2] (0.1 mg/kg i.v. bolus + 10 μg/kg/min i.v. infusion, mean ± S.E.M., segments with detectable thrombus), 59.42 ± 4.34%; in experiment [2] (0.1 mg/kg i.v. bolus + 20 μg/kg/min i.v. infusion, mean ± S.E.M., segments with detectable thrombus), 45.3 ± 11.63%; in experiment [2] (setting [5]), 0%. Further, the “Incidence of Occlusion” value in experiment [2] (0.1 mg/kg i.v. bolus + 5 μg/kg/min i.v. infusion) is 3/3; in experiment [2] (0.1 mg/kg i.v. bolus + 10 μg/kg/min i.v. infusion) it was 5/6; in experiment [2] (0.1 mg/kg i.v. bolus + 20 μg/kg/min i.v. infusion) it was 5/6; in experiment [2] (setting [5]), 0/6. Further, in experiment [3], the “prolongation of activated partial thromboplastin time (APTT)” value is on record as “prolonged the APTT in a dose dependent manner”. Further, the pKi (in general, −log10 of the Ki, conventionally taken in molar units) at α-thrombin [4] (chromogenic substrate Pefachrome t-PA, HBSA pH 7.5, slow-binding (kon/koff) or Dixon analysis) is 9.36. The “kinetics / mechanism of thrombin inhibition” value on α-thrombin [4] (in words) is “rapid, reversible kinetics of inhibition”.
